Assay results reported in US20180045715A1, “STRUCTURE AND FUNCTION OF THE SALICYCLIC ACID BINDING SITES ON HUMAN HMGB1 AND METHODS OF USE THEREOF FOR THE RATIONAL DESIGN OF BOTH SALICYCLIC ACID DERIVATIVES AND OTHER AGENTS THAT ALTER ANIMAL AND PLANT HMGBS ACTIVITIES” (Boyce Thompson Institute for Plant Research, Inc., priority 2015, published 2018).
Changes are numbered by the printed parent chain. Entries after “also recorded” stand apart in the source; their conditions may differ.

Legend:
[1] = target: T1, mutant (R24A/K28A) HMGB1^RE (Homo sapiens, UniProt P09429, K28A/R24A); test: Chemotaxis assay with mutant R24A/K28A HMGB1^RE; assay type: cell-based; settings: NIH/3T3 fibroblasts
T1 construct: (i) full length: residues 2-215; made in house
T1 sequence (P09429 2-215 R24A/K28A): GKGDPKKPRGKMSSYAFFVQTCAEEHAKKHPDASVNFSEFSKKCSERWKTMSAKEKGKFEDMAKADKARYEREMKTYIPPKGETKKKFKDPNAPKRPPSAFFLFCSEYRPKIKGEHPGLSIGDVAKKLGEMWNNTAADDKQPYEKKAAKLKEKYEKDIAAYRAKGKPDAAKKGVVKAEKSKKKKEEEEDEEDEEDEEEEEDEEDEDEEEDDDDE
Procedure: (§1) Cell migration was assayed using Boyden chambers (Venereau et al., 2012). The downside of PVP-free polycarbonate filters (8 μm pores; Millipore) was coated with 50 μg/ml fibronectin (Sigma). Serum-free DMEM (negative control), DMEM containing 0.1 nM fMLP (positive control; Sigma), or DMEM containing 1 nM HMGB1^RE or HMGB1^SS were placed in the lower chamber, together with different concentrations of SA (Sigma). The mouse 3T3 fibroblast cells were cultured in DMEM media supplemented with 10% CS until 90% confluence, washed twice with PBS to eliminate any floating cells, and harvested with trypsin. 50,000 cells in 200 μL were added to the upper chamber, and cells were left to migrate for 3 h at 37° C. Non-migrating cells were removed with a cotton swab, and migrated cells were fixed with ethanol and stained with Giemsa.
An alternative explanation is that SA, at low concentrations, affects another factor in vivo, which results indirectly in suppression of HMGB1^RE-induced chemotaxis. […] Therefore, these residues were mutated to Ala to form the double mutant Arg24Ala/Lys28Ala (R24A/K28A).

HMGB1^SS = target: T2, HMGB1^SS (Homo sapiens, UniProt P09429); test: HMGB1^SS-induced cytokine and COX-2 gene expression in human macrophages (qPCR); assay type: cell-based; settings: 3 h, 100 μM SA or 1 μM ac3AESA
T2 construct: (i) full length: residues 2-215; 6x His (cleaved yes); made in house; host or cells: Escherichia coli BL21
T2 sequence (P09429 2-215): T1 sequence (P09429 2-215 R24A/K28A) with A23R, A27K
Procedure: Human HeLa cells were grown in T75 flasks in DMEM medium supplemented with penicillin (10,000 IU/mL) streptomycin ([…]), and 10% fetal calf serum. Ptgs2−/− MEFs were derived from Ptgs2−/− E16 mouse embryos, obtained from the mating of Ptgs2+/− mice purchased from Taconic Biosciences. PBMCs were isolated from buffy coats of donor blood (Hospital of Magenta, Milan, Italy) by Ficoll gradient centrifugation (Lymphoprep; AXIS-SHIELD. CD14+ monocytes were isolated by positive immunoselection (CD14 Microbeads; Miltenyi Biotec) according to the manufacturer's instructions, and differentiated into macrophages using X-Vivo medium supplemented with 1% heat inactivated human serum, GM-CSF, and M-CSF.
Macrophages were exposed to 3 μg/ml HMGB1^SS or 50 ng/ml LPS. Total RNAs were isolated using the Illustra RNAspin Mini kit (GE Healthcare), and complementary DNA (cDNA) was obtained by retro-transcription with oligo(dT) primers (Invitrogen, Carlsbad, Calif., USA) and SuperScript II Reverse Transcriptase (Invitrogen) following the manufacturers' instructions. Quantitative real-time PCR was performed using a LightCycler480 (Roche Molecular Diagnostics), in duplicates, using SYBR Green I master mix and the oligonucleotides listed in Table of primers below. The ΔCt method was used for quantification, and the β-actin gene was used for normalization.

AtHMGB3 = target: T3, AtHMGB3 (Arabidopsis thaliana, UniProt P93047); settings: co-infiltration of 1-10 μM SA, 1 μM AtHMGB3
T3 sequence (P93047 1-141): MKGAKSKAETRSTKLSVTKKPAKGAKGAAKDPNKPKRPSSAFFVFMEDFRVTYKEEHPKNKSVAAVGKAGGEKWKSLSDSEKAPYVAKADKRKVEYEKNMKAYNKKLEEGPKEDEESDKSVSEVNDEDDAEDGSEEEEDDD
Procedure: To detect the phosphorylation of Arabidopsis MAPKs (MPK3/4/6), 3 to 4 week-old soil grown Arabidopsis leaves were infiltrated with 1 μM AtHMGB3 or 1 μM Pep1 peptide ([…]; synthesized by GenScript USA Inc.). Two leaf disks were cut from the leaf center of two different leaves using a cork borer (diameter=0.7 cm) and immediately frozen and ground to fine powder in liquid nitrogen. […] The protein concentration of supernatant was measured using the Bradford reagent (Bio-Rad). Forty μg of proteins per sample was separated on the 8% SDS-PAGE and transferred to a PVDF membrane for immunoblotting using the anti-phospho-p44/42 MAPK antibody (Cell Signaling Technology). The large subunit of Rubisco was visualized by Coomassie Brilliant Blue (CBB) staining of the PVDF membrane in order to assess consistency of loading.

K12A/K68A HMGB1^RE = target: T4, K12A/K68A HMGB1^RE (Homo sapiens, UniProt P09429, K12A/K68A); test: Chemotaxis assay with mutant K12A/K68A HMGB1^RE; assay type: cell-based; settings: 1 nM mutant HMGB1^RE, 30 μM SA
T4 construct: (i) full length: residues 2-215; made in house
T4 sequence (P09429 2-215 K12A/K68A): T1 sequence (P09429 2-215 R24A/K28A) with K11A, A23R, A27K, K67A
Procedure: as §1
Two additional double mutants in Box A were constructed—H27A/R48A and K12A/K68A. […] Since mutant H27A/R48A no longer had chemo-attractant activity, the effect of SA on this activity could not be assessed (FIG. 12).

## O=C(O)c1ccccc1O [SA, salicylic acid]
[1]
  inhibition of R24A/K28A HMGB1^RE's chemo-attractant activity: not inhibited
HMGB1^SS
  suppression of cytokine (IL-6, TNFα) and COX-2 expression induced by HMGB1^SS: partially or completely suppressed; also recorded: partially suppressed
AtHMGB3
  effect on MPK3/6 activation by AtHMGB3: blocked
K12A/K68A HMGB1^RE
  inhibition by SA of K12A/K68A HMGB1^RE chemo-attractant activity: retained
